Patent US8193372B2, “Phosphothiophene and phosphothiazole HCV polymerase inhibitors” (Idenix Pharmaceuticals, Inc., priority 2009, dated 2012)

Columns and labels:
[1] = system: HCV Con1 subgenomic replicon of genotype 1b (GS4.1 cells); assay: microbe, parasite or virus in culture; format: cell-based, HCV genotype 1b; conditions: Hepatitis C virus; for EC50: 72 h
[2] = in vitro; conditions: human

Compound	IC50 [1]	EC50 [1]	CC50 [2]
COP(=O)(Nc1cc(-c2ccc(-c3cc4nc(C)cc(N)n4n3)cc2)sc1C(=O)O)c1ccc(C)cc1C (centres unmarked) [Compound 100]	< 0.1 µM	< 0.1 µM	> 8.3 µM
COP(=O)(Nc1cc(-c2ccc(C#Cc3cncn3C)cc2)sc1C(=O)O)c1ccc(C)cc1C (centres unmarked) [Compound 101]	< 0.1 µM	0.1 to 8.3 µM	> 8.3 µM
COP(=O)(Nc1cc(-c2ccc(C#CC3CCCC3)cc2)sc1C(=O)O)c1ccc(C)cc1C (centres unmarked) [Compound 102]	0.1 to 8.3 µM	> 8.3 µM	> 8.3 µM
COP(=O)(Nc1cc(-c2ccc(C#Cc3ccsc3)cc2)sc1C(=O)O)c1ccc(C)cc1C (centres unmarked) [Compound 103]	< 0.1 µM	< 0.1 µM	> 8.3 µM
COP(=O)(Nc1cc(-c2ccc(C#CCC(C)C)cc2)sc1C(=O)O)c1ccc(C)cc1C (centres unmarked) [Compound 104]	0.1 to 8.3 µM	> 8.3 µM	> 8.3 µM
COP(=O)(Nc1cc(-c2ccc(-c3cc4nc(C)ccn4n3)cc2)sc1C(=O)O)c1ccc(C)cc1C (centres unmarked) [Compound 105]	< 0.1 µM	< 0.1 µM	> 8.3 µM
C#CCOP(=O)(Nc1cc(-c2ccc(Cl)cc2)sc1C(=O)O)c1ccc(C)cc1C (centres unmarked) [Compound 106]	0.1 to 8.3 µM	0.1 to 8.3 µM	> 8.3 µM
CCOC(=O)OC(C)N(c1cc(-c2ccc(Cl)cc2)sc1C(=O)OC(C)OC(=O)OC)P(=O)(OC)c1ccc(C)cc1C (centres unmarked) [Compound 108]	> 8.3 µM	0.1 to 8.3 µM	> 8.3 µM
CCOP(=O)(Nc1cc(-c2ccc(Cl)cc2)sc1C(=O)O)C1CCC(C)CC1 (centres unmarked) [Compound 110]	0.1 to 8.3 µM	> 8.3 µM	> 8.3 µM
COP(=O)(Nc1cc(-c2ccc(Cl)cc2)sc1C(N)=O)c1ccc(C)cc1C (centres unmarked) [Compound 111]	> 8.3 µM	> 8.3 µM	> 8.3 µM
COP(=O)(Nc1cc(-c2ccc(-c3cc4ncccn4n3)cc2)sc1C(=O)OCc1ccccc1)c1ccc(C)cc1C (centres unmarked) [Compound 112]	0.1 to 8.3 µM	0.1 to 8.3 µM	> 8.3 µM
COP(=O)(c1ccc(C)cc1C)N(C)c1cc(-c2ccc(Cl)cc2)sc1C(=O)O (centres unmarked) [Compound 113]	< 0.1 µM	0.1 to 8.3 µM	> 8.3 µM
COP(=O)(Nc1cc(-c2ccc(NC(=O)c3cscn3)cc2)sc1C(=O)O)c1ccc(C)cc1C (centres unmarked) [Compound 115]	< 0.1 µM	< 0.1 µM	> 8.3 µM
COP(=O)(Nc1cc(I)sc1C(=O)O)c1ccc(C)cc1C (centres unmarked) [Compound 116]	0.1 to 8.3 µM	> 8.3 µM	> 8.3 µM
CCOP(=O)(Nc1cc(-c2ccc(Cl)cc2)sc1C(=O)O)C1CC=C(C)CC1 (centres unmarked) [Compound 117]	0.1 to 8.3 µM	> 8.3 µM	> 8.3 µM
COP(=O)(Nc1cc(-c2ccc(C#CC3CC3)cc2)sc1C(=O)O)c1ccc(C)cc1C (centres unmarked) [Compound 118]	< 0.1 µM	0.1 to 8.3 µM	> 8.3 µM
COP(=O)(Nc1cc(-c2ccc(-c3cc4ncccc4o3)cc2)sc1C(=O)O)c1ccc(Cl)cc1F (centres unmarked) [Compound 119]	< 0.1 µM	< 0.1 µM	> 8.3 µM
COP(=O)(Nc1cc(-c2ccc(-c3cccc([N+](=O)[O-])c3)cc2)sc1C(=O)O)c1ccc(C)cc1C (centres unmarked) [Compound 120]	0.1 to 8.3 µM	> 8.3 µM	> 8.3 µM
COP(=O)(Nc1cc(-c2ccc(-c3cccc4ncccc34)cc2)sc1C(=O)O)c1ccc(C)cc1C (centres unmarked) [Compound 121]	< 0.1 µM	0.1 to 8.3 µM	> 8.3 µM
COP(=O)(Nc1cc(-c2ccc(-c3ccc(OCc4ccccc4)nc3)cc2)sc1C(=O)O)c1ccc(C)cc1C (centres unmarked) [Compound 122]	0.1 to 8.3 µM	> 8.3 µM	> 8.3 µM

Compound	IC50 [1]	EC50 [1]	CC50 [2]
COc1cc(-c2ccc(-c3cc(NP(=O)(OC)c4ccc(C)cc4C)c(C(=O)O)s3)cc2)cc(OC)c1OC (centres unmarked) [Compound 123]	0.1 to 8.3 µM	> 8.3 µM	> 8.3 µM
COP(=O)(Nc1cc(-c2ccc(-c3ccccc3F)cc2)sc1C(=O)O)c1ccc(C)cc1C (centres unmarked) [Compound 124]	0.1 to 8.3 µM	0.1 to 8.3 µM	> 8.3 µM
COP(=O)(Nc1cc(-c2ccc(-c3cc4ccccc4o3)cc2)sc1C(=O)O)c1ccc(C)cc1C (centres unmarked) [Compound 125]	< 0.1 µM	< 0.1 µM	> 8.3 µM
COP(=O)(Nc1cc(-c2ccc(N)cc2)sc1C(=O)O)c1ccc(C)cc1C (centres unmarked) [Compound 126]	0.1 to 8.3 µM	> 8.3 µM	> 8.3 µM
COP(=O)(Nc1cc(-c2ccc([N+](=O)[O-])cc2)sc1C(=O)O)c1ccc(C)cc1C (centres unmarked) [Compound 127]	< 0.1 µM	0.1 to 8.3 µM	> 8.3 µM
COP(=O)(Nc1cc(-c2ccc(-c3c(C)noc3C)cc2)sc1C(=O)O)c1ccc(C)cc1C (centres unmarked) [Compound 128]	0.1 to 8.3 µM	> 8.3 µM	> 8.3 µM
COP(=O)(Nc1cc(-c2ccc(-c3ccc(C(F)(F)F)cc3)cc2)sc1C(=O)O)c1ccc(C)cc1C (centres unmarked) [Compound 129]	< 0.1 µM	0.1 to 8.3 µM	> 8.3 µM
COP(=O)(Nc1cc(-c2ccc(I)cc2)sc1C(=O)O)c1ccc(C)cc1C (centres unmarked) [Compound 132]	0.1 to 8.3 µM		> 8.3 µM
COP(=O)(Nc1cc(-c2ccc(Cl)cc2)sc1C(=O)O)c1ccc(Cl)cc1F (centres unmarked) [Compound 133]	0.1 to 8.3 µM	0.1 to 8.3 µM	> 8.3 µM
COP(=O)(Nc1cc(-c2ccc(Cl)cc2)sc1C(=O)O)c1ccc(Cl)cc1C (centres unmarked) [Compound 134]	< 0.1 µM	0.1 to 8.3 µM	> 8.3 µM
CCOP(=O)(Nc1cc(-c2ccc(Cl)cc2)sc1C(=O)O)c1ccc(Cl)cc1C (centres unmarked) [Compound 136]	< 0.1 µM	0.1 to 8.3 µM	> 8.3 µM
COP(=O)(c1ccc(C)cc1C)N(C)c1cc(-c2ccc(-c3cc4ncccn4n3)cc2)sc1C(=O)O (centres unmarked) [Compound 138]	< 0.1 µM	< 0.1 µM	> 8.3 µM
COP(=O)(Nc1cc(-c2ccc(C#Cc3cscn3)cc2)sc1C(=O)O)c1ccc(C)cc1C (centres unmarked) [Compound 139]	< 0.1 µM	< 0.1 µM	> 8.3 µM
COC(=O)c1sc(-c2ccc(Cl)cc2)cc1NP(=O)(OC)c1ccc(C)cc1C (centres unmarked) [Compound 140]		> 8.3 µM	> 8.3 µM
COP(=O)(Nc1cc(-c2ccc(Br)cc2)sc1C(=O)O)c1ccc(C)cc1C (centres unmarked) [Compound 141]	< 0.1 µM	0.1 to 8.3 µM	> 8.3 µM
COC(=O)c1sc(-c2ccc(-c3cc4ncccn4n3)cc2)cc1NP(=O)(OC)c1ccc(C)cc1C (centres unmarked) [Compound 142]		0.1 to 8.3 µM	> 8.3 µM
COP(=O)(Nc1cc(-c2ccc(C#Cc3ccccn3)cc2)sc1C(=O)O)c1ccc(C)cc1C (centres unmarked) [Compound 143]	< 0.1 µM	< 0.1 µM	> 8.3 µM
COC(=O)c1sc(-c2ccc(I)cc2)cc1NP(=O)(OC)c1ccc(C)cc1C (centres unmarked) [Compound 144]		> 8.3 µM	> 8.3 µM
COP(=O)(c1ccc(C)cc1C)N(C)c1cc(-c2ccc(-c3cc4ncccc4o3)cc2)sc1C(=O)O (centres unmarked) [Compound 145]	< 0.1 µM	< 0.1 µM	> 8.3 µM
COP(=O)(Nc1cc(-c2ccc(C#Cc3ccccc3)cc2)sc1C(=O)O)c1ccc(C)cc1C (centres unmarked) [Compound 146]	< 0.1 µM	< 0.1 µM	> 8.3 µM
